Assay results from patent publication US11685710B2, “Cationic sulfonamide amino lipids and amphiphilic zwitterionic amino lipids” (The Board of Regents of the University of Texas System, priority 2016, dated 2023).

Tests used:
[1] = In vivo luciferase mRNA delivery (bioluminescence imaging); set-up: species or system mice; settings: Luc mRNA i.v., 24 h; athymic nude 1 mg/kg, C57BL/6 4 mg/kg, NSG 1 mg/kg
Method: In vivo luciferase mRNA delivery: All experiments were approved by the Institutional Animal Care & Use Committee (IACUC) of The University of Texas Southwestern Medical Center and were consistent with local, state and federal regulations as applicable. ZA3-Ep10 ZAL was formulated with in vivo formulation at 50 ZAL:38.5 cholesterol: 2 or 0.5 PEG-lipid mole ratio in the lipid mix, and 7.5:1 ZAL:mRNA weight ratio. Athymic Nude-Foxn1^nu mice (Harlan Laboratories) were injected with ZAL-mRNA NPs at a dose of 1 mg/kg via tail vein injection or intraperiotneal injection. After 24 h and 48 h the luciferase expression was evaluated by live animal bioluminescence imaging Animals were anesthetized under isofluorane, and D-luciferin monosodium hydrate (GoldBio) substrate was injected IP. […]
All experiments were approved by the Institutional Animal Care & Use Committee (IACUC) of The University of Texas Southwestern Medical Center and were consistent with local, state and federal regulations as applicable. […] After 24 h and 48 h the luciferase expression was evaluated by live animal bioluminescence imaging Animals were anesthetized under isofluorane, and D-luciferin monosodium hydrate (GoldBio) substrate was injected subcutaneously in the neck scruff. […]

[2] = Nanoparticle size by dynamic light scattering; type: physicochemical; settings: Luc mRNA NPs, varied PEG-lipid
Method: (§1) Nanoparticle property characterization: Physical properties were measured using a Zetasizer Nano ZS (Malvern) with an He—Ne laser (λ=632 nm). Particle sizes were measured by dynamic light scattering (DLS) (5 measurements, 3 runs×10 seconds, automatic attenuator setting) by 173° back scattering. Zeta potential was measured in a folded capillary cell (Malvern) with samples diluted in PBS for ZAL NPs or citrate phosphate buffer pH 7.4 for CSAL NPs.
as §1, with “Physical” for “Nanoparticle property characterization: Physical”

IGROV1 cells = test: mRNA delivery in vitro assay (luciferase / mCherry mRNA); type: cell-based, human
Method: ZAL mRNA delivery in vitro assay: ZAL nanoparticles with firefly luciferase mRNA (Tri-Link Biotechnologies) were prepared using the in vitro nanoparticle formulation method outlined above. IGROV1 cells were seed in white opaque 96-well tissue culture plates at a seeding density of 5×10^3 cells per well in 100 μL RPMI 1640 medium supplemented with 5% FBS, and allowed to attach overnight. After overnight incubation, and additional 100 μL medium was added to the wells. The ZAL:mRNA nanoparticles were prepared at a ZAL:mRNA weight ratio of 20:1, 10:1, 7.5:1 and 5:1, and lipid mixture molar compositions of 50:38.5 ZAL:cholesterol, with PEG lipid supplemented at a molar ratio of 5%, 2%, 1% or 0.5% at each weight ratio. The ZAL-mRNA nanoparticles were added to the cells at a dose of 100 ng mRNA per well and incubated for the indicated time (ranging from 6 h to 48 h), after which time cell viability and luciferase expression were evaluated with the ONE-Glo+Tox Assay cell viability and luciferase assay (Promega) and normalized to untreated cells (N=4+/−standard deviation)
ZNPs with mRNA (Tri-Link Biotechnologies) were prepared using the in vitro nanoparticle formulation method outlined above. IGROV1 cells were seeded in white opaque 96-well tissue culture plates at a seeding density of 5×10^3 cells per well in 100 μL RPMI 1640 medium supplemented with 5% FBS, and allowed to attach overnight. After overnight incubation, an additional 100 μL medium was added to the wells. The ZAL:mRNA nanoparticles were prepared at ZAL:mRNA weight ratios of 20:1, 10:1, 7.5:1 and 5:1, and lipid mixture molar compositions of 50:38.5:n ZAL:cholesterol:PEG-lipid, where n=5, 2, 1, and 0.5 at each weight ratio. The ZAL-mRNA nanoparticles were added to the cells at the appropriate mRNA dose and incubated for the indicated time (ranging from 6 h to 48 h), after which time cell viability and luciferase expression were evaluated with the ONE-Glo+Tox Assay (Promega) and normalized to untreated cells (N=4+/−standard deviation).

A549-Luc cells = test: Cas9 mRNA delivery: mRNA level (RT-qPCR) and Cas9 protein expression (western blot); type: cell-based; settings: for level of Cas9 mRNA: A549 lung cancer cells
Method: The cells were lysed in cold RIPA buffer (Thermo Scientific), the lysate cleared by centrifugation and total protein in the supernatant quantified by the BCA assay (Pierce). 50 μg total protein was loaded on 4-20% precast polyacrylamide gel and transferred to a nitrocellulose membrane (BioRad). The membrane was blocked in 5% nonfat milk for 1 hour at RT, and then incubated with primary antibody at 4° C. overnight (Cas9 antibody, 1:1000, Cell Signaling, 14697S; beta-actin antibody, 1:2000, Cell Signaling, 4970). Secondary antibodies were applied at RT for 1 hour (anti-rabbit IgG, HRP-linked antibody, Cell Signaling, 7074, anti-mouse IgG, HRP-linked antibody, Cell Signaling, 7076), and then the membrane was developed and detected on X-ray film.
Cells were transfected with Cas9 mRNA for the indicated time point in a 6-well plate and 0.5 μg/mL mRNA for the indicated time point. Total RNA was extracted using the TRIzol reagent according to the manufacturer's protocol. The RNA was reverse transcribed using the iScript Reverse Transcription kit (BioRad) and the real-time qPCR was run on a Bio-Rad C1000 Touch Thermal Cycler (CFX384 Real-time System). Each reaction was made with iTaq Universal SYBR Green 2× Supermix (Bio-Rad). The qPCR program is as follows:
Human β-actin was used as a control and mRNA levels were normalized to fold actin and plotted as an average of two independent experiments.

CCCCCCCCC(O)CN(CCC(=O)NCC[N+](C)(C)CCCS(=O)(=O)[O-])CCN(CCN(CC(O)CCCCCCCC)CC(O)CCCCCCCC)CCN(CC(O)CCCCCCCC)CC(O)CCCCCCCC (stereo not drawn) [ZA3-Ep10]
tissues with expression of luciferase [1]: liver, lung and spleen | change in ZNP size versus PEG lipid ratio [2]: modest change | delivery efficacy of mRNA versus PEG lipid ratio (IGROV1 cells; PEG-lipid 5, 2, 1 or 0.5 in lipid mix): decreased with higher PEG lipid ratios | luciferase expression versus mRNA dose (IGROV1 cells; luciferase mRNA (~2,000 nt), IGROV1 cells): dose-dependent | mRNA dose required for high expression (IGROV1 cells; luciferase mRNA, IGROV1 cells): < 600 pM | mCherry expression (IGROV1 cells; mCherry mRNA (~1,000 nt), IGROV1 cells): Bright mCherry expression | time of highest Cas9 protein expression (A549-Luc cells; A549 cells, low at 4 h, increased by 12 h): 36 h | level of Cas9 mRNA (A549-Luc cells; after 4 h incubation): > 4 fold actin | level of Cas9 mRNA (A549-Luc cells; over the next 45 h): 0.7 fold actin
